Patent publication US20110105408A1, “THERAPEUTIC PEPTIDES” (INTER-K PTY LIMITED, priority 2008, published 2011)

System: phospho-ERK in HT29 cells
Assay: Phospho-ERK ELISA (FACE ERK1/2 kit) in HT29 cells
Format: cell-based, human
Procedure: HT29 cells were harvested using 0.5% trypsin EDTA (Invitrogen) and 5000 cells were resuspended into 200 μL, and added to each well of a clear NUNC tissue culture treated 96 well plate (NUNC). Cells were seeded in DMEM media (Invitrogen) supplemented with 10% v/v foetal calf serum (FCS, Invitrogen), 1% L-Glutamine (Invitrogen) and 2% 1M HEPES buffer solution (Invitrogen). Cells were then incubated overnight at 37° C. The following day, the growth medium was replaced with 100 μL of serum-free DMEM supplemented with 1% L-glutamine and 2% 1M HEPES buffer solution, and incubated for a further 24 hours at 37° C. Dendrimers were added to test wells in serum free medium to provide final concentrations of the dendrimers ranging from 0.1-20 μLA. The total volume of each well was 200 uL, and cells were incubated at 37° C. for times ranging from 5 minutes to 4 hours. In those studies in which cells were subjected to stimulation by serum, 22 μL FCS (10% v/v final concentration) was added to wells for the final ten minutes of the culture period at 37° C. Serum-free media (SFM) only (22 μL) was added to non-serum stimulated cells.
Phospho-ERK levels were determined using the FACE ERK1/2 ELISA kit according to the manufacturer's instructions (Active Motif, kit obtained from Australian Biosearch, WA, Australia). Briefly, media was replaced and cells fixed with 4% formaldehyde in PBS, and after a 1 hour with antibody blocking buffer (supplied), the primary phospho-ERK or total-ERK antibody was added and incubated overnight at 4° C. Antibody dilution buffer only was added to control test wells containing no primary antibody. The next day, HRP-conjugated secondary antibody was added for one hour before plates were developed and the absorbance measured at 450 nm using a Labsystems Multiskan EX microplate reader (Labsystems, Thermo Labsystems, UK).
The effectiveness of the peptide dendrimer IK248 described in Example 2 in inhibiting growth factor mediated activation of ERK in HT29 cancer cells (i.e., (FCS stimulated) compared to various agents comprising the polypeptide RSKAKNPLYR (SEQ ID No. 6) coupled to different peptide facilitator moieties for facilitating passage of the polypeptide across the plasma cell membrane into the cytosol of the cells was evaluated. Phospho-ERK levels in the cells following treatment with 5 μM IK248 (Dend 8) for 1 hour or polypeptide-facilitator moiety agents (each at 5 μM for the same duration) were measured essentially as described in Example 1.3. The facilitator moieties utilised were the signal peptide fragment AAVALLPAVLLALLA (SEQ ID No. 16), the TAT-G peptide GRKKRRQRRRPPQG (SEQ ID No. 17), a modified pentratin sequence Tr-Pen RRQKWKKG (SEQ ID No. 18), and the penetratin peptide RQIKIWFQNRRMKWKKCS—SC (SEQ ID No. 19) wherein S—S indicates a disulphide bridge between the adjacent cysteine residues.
The peptide RSKAKNPLYR (SEQ ID. No. 6) or peptide dendrimers of the type illustrated in FIG. 3 comprising lysine branching units presenting either 8 (IK248) or 10 (IK248B) monomer units of the peptide RSKAKNPLYR (SEQ ID No. 6) were utilised in this study. Phospho-ERK levels were evaluated by ELISA utilising an Active Motif FACE ERK1/2 ELISA kit (Australian Biosearch, WA, Australia) as described in Example 1.3.

## CC(C)C[C@H](NC(=O)[C@@H]1CCCN1C(=O)[C@H](CC(N)=O)NC(=O)[C@H](CCCCN)NC(=O)[C@H](C)NC(=O)[C@H](CCCCN)NC(=O)[C@H](CO)NC(=O)[C@@H](N)CCCNC(=N)N)C(=O)N[C@@H](Cc1ccc(O)cc1)C(=O)N[C@@H](CCCNC(=N)N)C(=O)NCCCC[C@H](NC(=O)[C@H](CCCCNC(=O)[C@H](CCCCNC(=O)[C@H](CCCNC(=N)N)NC(=O)[C@H](Cc1ccc(O)cc1)NC(=O)[C@H](CC(C)C)NC(=O)[C@@H]1CCCN1C(=O)[C@H](CC(N)=O)NC(=O)[C@H](CCCCN)NC(=O)[C@H](C)NC(=O)[C@H](CCCCN)NC(=O)[C@H](CO)NC(=O)[C@@H](N)CCCNC(=N)N)NC(=O)[C@H](CCCNC(=N)N)NC(=O)[C@H](Cc1ccc(O)cc1)NC(=O)[C@H](CC(C)C)NC(=O)[C@@H]1CCCN1C(=O)[C@H](CC(N)=O)NC(=O)[C@H](CCCCN)NC(=O)[C@H](C)NC(=O)[C@H](CCCCN)NC(=O)[C@H](CO)NC(=O)[C@@H](N)CCCNC(=N)N)NC(=O)[C@H](CCCCNC(=O)[C@H](CCCNC(=N)N)NC(=O)[C@H](Cc1ccc(O)cc1)NC(=O)[C@H](CC(C)C)NC(=O)[C@@H]1CCCN1C(=O)[C@H](CC(N)=O)NC(=O)[C@H](CCCCN)NC(=O)[C@H](C)NC(=O)[C@H](CCCCN)NC(=O)[C@H](CO)NC(=O)[C@@H](N)CCCNC(=N)N)NC(=O)[C@H](CCCNC(=N)N)NC(=O)[C@H](Cc1ccc(O)cc1)NC(=O)[C@H](CC(C)C)NC(=O)[C@@H]1CCCN1C(=O)[C@H](CC(N)=O)NC(=O)[C@H](CCCCN)NC(=O)[C@H](C)NC(=O)[C@H](CCCCN)NC(=O)[C@H](CO)NC(=O)[C@@H](N)CCCNC(=N)N)C(=O)NCCCC[C@H](NC(=O)[C@H](CCCCNC(=O)[C@H](CCCNC(=N)N)NC(=O)[C@H](Cc1ccc(O)cc1)NC(=O)[C@H](CC(C)C)NC(=O)[C@@H]1CCCN1C(=O)[C@H](CC(N)=O)NC(=O)[C@H](CCCCN)NC(=O)[C@H](C)NC(=O)[C@H](CCCCN)NC(=O)[C@H](CO)NC(=O)[C@@H](N)CCCNC(=N)N)NC(=O)[C@H](CCCCNC(=O)[C@H](CCCCNC(=O)[C@H](CCCNC(=N)N)NC(=O)[C@H](Cc1ccc(O)cc1)NC(=O)[C@H](CC(C)C)NC(=O)[C@@H]1CCCN1C(=O)[C@H](CC(N)=O)NC(=O)[C@H](CCCCN)NC(=O)[C@H](C)NC(=O)[C@H](CCCCN)NC(=O)[C@H](CO)NC(=O)[C@@H](N)CCCNC(=N)N)NC(=O)[C@H](CCCNC(=N)N)NC(=O)[C@H](Cc1ccc(O)cc1)NC(=O)[C@H](CC(C)C)NC(=O)[C@@H]1CCCN1C(=O)[C@H](CC(N)=O)NC(=O)[C@H](CCCCN)NC(=O)[C@H](C)NC(=O)[C@H](CCCCN)NC(=O)[C@H](CO)NC(=O)[C@@H](N)CCCNC(=N)N)NC(=O)[C@H](CCCCNC(=O)[C@H](CCCNC(=N)N)NC(=O)[C@H](Cc1ccc(O)cc1)NC(=O)[C@H](CC(C)C)NC(=O)[C@@H]1CCCN1C(=O)[C@H](CC(N)=O)NC(=O)[C@H](CCCCN)NC(=O)[C@H](C)NC(=O)[C@H](CCCCN)NC(=O)[C@H](CO)NC(=O)[C@@H](N)CCCNC(=N)N)NC(=O)[C@H](CCCNC(=N)N)NC(=O)[C@H](Cc1ccc(O)cc1)NC(=O)[C@H](CC(C)C)NC(=O)[C@@H]1CCCN1C(=O)[C@H](CC(N)=O)NC(=O)[C@H](CCCCN)NC(=O)[C@H](C)NC(=O)[C@H](CCCCN)NC(=O)[C@H](CO)NC(=O)[C@@H](N)CCCNC(=N)N)C(=O)NCCC(N)=O [IK248B]
HI FCS stimulated HT29 cells
  phospho-ERK levels relative to control cells, dose response: decreased relative to control cells with progressively increasing dosages
HI FCS stimulated HT29 cells, 10 μM (data not shown)
  ERK activity (as indicated by phospho-ERK levels): entirely inhibited
HI FCS stimulated HT29 cells, dose of 5 μM
  phospho-ERK levels: almost totally abrogated
Data not shown
  phospho-ERK levels in HT29 cells compared to normal skin fibroblast cells (selectivity for cancer cells): significantly reduced compared to normal skin fibroblast cells
Not FCS stimulated, 0.1, 0.5, 1 and 5 μM, 4 hr incubation
  basal phospho-ERK level relative to control cells: did not stimulate basal phospho-ERK levels
